From patent US12440471B2, “Compositions and methods for the treatment of bronchopulmonary dysplasia (BPD) and BPD-associated pulmonary hypertension” (AyuVis Research, Inc., priority 2021, dated 2025)

What was measured:
[1] = tested on: hyperoxia-exposed BPD mouse model; experiment: Hyperoxia-exposed BPD mouse model: dose response and lung morphometry; type: in vivo; conditions: mouse, in vivo
Method: Simultaneously, the AVR-48 nanosuspension formulation IN (0.11 mg/kg) was tested as well as in solution form, IP and IV (10 mg/kg) (through the facial vein), and confirmed that all routes of administration gave similar outcomes. […] From the PK study, as described above, the bioavailability of the drug in the plasma and lungs were similar when delivered as solution formulation via either IN or IP routes. As the goal of this study is to develop AVR-48 as a commercially viable and applicable therapeutic candidate for BPD, the IP route was selected as the preferred mode of drug delivery in neonatal murine pups, with the rationale that it would be easier to deliver the drug systemically to preterm babies IV, rather than the IN route. The results and outcome of all the routes of administration have been presented in a cumulative manner, as the endpoint was similar for all routes of administration. […] FIG. 1 is a dose response study of AVR-48 at different doses of […], given IP. ****p<0.0001. N=5-7 mice per group. 10 mg/kg (IP) was selected as the most efficacious dose. IP: intraperitoneal; Hyp: hyperoxia; BPD: Bronchopulmonary dysplasia.
Formulation of AVR-48 for efficacy and toxicokinetic studies. For the mouse dose response efficacy studies, AVR-48 was reconstituted in 0.9% sterile normal saline to give a final dose concentration of […] as a colorless solution, and injected IP (30 μl) on P2 and P4. The PLGA encapsulated AVR-48 or the GFP-tagged analog was resuspended in deionized sterile water to make a nanosuspension with final dose concentration of 0.025, 0.05 and 0.11 mg/kg/drop. The surfactant Curosurf® (Cheisi Parma, Italy), available commercially, was delivered IN at a volume of 3 μl per nostril, on P2 and P4. For the toxicokinetic study of AVR-48 in rat pups, a formulation of 10% DMSO, 20% tetraglycol, 20% PEG 400, and 50% sterile water was made fresh before administration (Shah, Das et al. 2021).
(§1) For the hyperoxia experiment, newborn pups were exposed to 100% hyperoxia (P0), along with their mothers, in cages in an airtight Plexiglas chamber (OxyCycler; Biospherix, Redfield, NY, USA) as described previously by the present inventors (Syed, Das et al., 2017, Leary, Das et al. 2019, Das, Acharya et al. 2020, relevant portions incorporated herein) for 4 consecutive days (till P4) and removed to RA on P5 to be recovered till P14, so as to emulate the human BPD condition. All pups were sacrificed on P14 for further experimental analyses. The pups without any hyperoxia exposure served as the corresponding RA (normoxia) controls.
Histology, immunohistochemistry and immunofluorescence. Both the RA control and BPD mice were anesthetized (using an overdose of a cocktail of xylazine-ketamine) and lung and heart tissues were harvested after perfusion and fixed overnight in 4% paraformaldehyde. Fixed tissues were then washed in fresh PBS, dehydrated using 70% ethanol, cleared, and embedded in paraffin to be sectioned and stained with hematoxylin and eosin (H&E) for lung morphometry or immunohistochemistry/immunofluorescence as previously described (Leary, Das et al. 2019, Das, Achaiya et al. 2020, Das, Curstedt et al. 2020). Immunofluorescence staining was done for Ki67 (Abcam, 1:10) and Von Wilebrand Factor (vWF-DAKO, 1:100) on lung paraffin sections following the protocol as described earlier (Leary, Das et al. 2019) while TUNEL staining was done following the manufacturer's instructions (Roche).
Morphometry and quantification. To study chord length, septal thickness and radial alveolar count in the lungs, RV, LV and IVS thickness, 5 μm-thick left-lobe lung and heart paraffin-embedded sections were stained with H&E. Multiple randomly chosen areas (at least 10 areas) from each section were photographed using 100× total magnification. […]

TLR4 = molecular target: T1, TLR4 (Homo sapiens, UniProt O00206); experiment: TLR4 assay: unbound TLR4 ELISA in PMA-stimulated THP-1 cell lysates; type: binding; conditions: THP-1 human monocyte cells
T1 construct: Cell lysates were prepared, total protein was quantified and treated with different concentrations; host or cells: THP-1 cells stimulated with PMA for 48 h, then lysed
Method: FIG. 26A, TLR4 assay: 1×10^5 THP cells (ATCC) were seeded in 24 well plates and stimulated with phorbol myristyl actetate (PMA, 200 ng/mL) for 48 h. Cell lysates were prepared, total protein was quantified and treated with different concentrations (4, 16, 62.5 and 250 μM) of the AVR-48 for 2 h. ELISA was performed after to assess unbound TLR4 following manufacturer's instruction (Raybiotech). TLR4 IC50 of the AVR-48 was calculated using GraphPad Prism7.04.

[2] = Oral PK of nanomilled formulations in adult SD rats; type: in vivo, rat; conditions: rat, in vivo, po, 100 mg/kg
Method: The test item, the stabilizer (HPC-SSL) and the surfactant (SDS) were accurately weighed and transferred in a 15-mL amber glass jar charged with 6 mL of yttrium-stabilized zirconia beads (0.8 mm). The suspension was brought to final weight with water in order to achieve the desired final concentration. The formulation was mixed using a vortex for at least 1 minute and then homogenized using a roller mill (Unitized Jar Mill, Model 755 RMV from U.S. Stoneware (purchased from Fisher Scientific Canada cat #08-381-1) at 50 rpm for 48 hours.
For the animal study, the suspensions prepared at 50 mg/mL were diluted to 10 mg/mL using a blank vehicle prepared using the same proportions of excipients as those indicated in Table I. By diluting the concentrated suspension of AVR-84 a clear solution was obtained whereas for AVR-48 the solution was a homogeneous cloudy solution.
Animals and dosing: The male SD rats (N=3) were obtained from Charles River. Each animal was weighed before the administration of the test item. […] At the specified time points, t=15′, 30′, 1 h, 2 h, 3 h, 4 h, 6 h, 8 h and 24 h (N=3), blood (100 μL) was collected via the saphenous vein using MINIVETTE® POCT K3-EDTA. The blood samples were centrifuged for 10 min at 965 g and 4° C. within 30 min of collection, to obtain plasma. Plasma samples were kept frozen at −80° C. The plasma samples were thawed on ice and kept on ice during the sample preparation. Thirty μL of plasma samples were mixed with 75 μL of precipitation solution (80% acetonitrile and 20% methanol containing IS) was added. Samples were mixed and centrifuged at 3500 rpm for 10 min at 4° C. Forty μL of the supernatant was transferred to a 96 well plate, and 80 μL of water+0.1% formic acid was added and analyzed using the in house developed HPLC method.

[3] = tested on: hyperoxia-exposed BPD mouse model; experiment: BPD mouse model: bronchoalveolar lavage fluid (BALF) analysis; type: in vivo; conditions: 10 mg/kg; vs BPD group
Description: as §1
Bronchoalveolar lavage fluid (BALF) Analysis. Pups were sacrificed on PN14, and the trachea was cannulated with a small-caliber needle by instilling PBS endotracheally at […] pressure for 15 minutes. Two volumes of 300 μL of cold 1×PBS were instilled, gently aspirated, and pooled. Samples were centrifuged at 1000×g for 10 minutes at 4° C. The supernatant was collected, and total protein was quantified using the Pierce™ BCA Protein Assay Kit (Fisher Scientific Co, Houston, TX). The total cell count was done using the TC20 cell counter (BioRad, Hercules, CA). Similar method was followed for analyzing the protein concentration in BAL fluid collected from preterm lambs.

[4] = tested on: human cord blood monocytes (CBMC); experiment: Cytokines in human cord blood monocytes (CBMC); type: cell-based; conditions: compound alone (10 μM) or with LPS, compared with only LPS
Description: IL-12p40, is a marker for the innate immune response to infection and is down regulated in CBMC.

T1 sequence (O00206 24-839): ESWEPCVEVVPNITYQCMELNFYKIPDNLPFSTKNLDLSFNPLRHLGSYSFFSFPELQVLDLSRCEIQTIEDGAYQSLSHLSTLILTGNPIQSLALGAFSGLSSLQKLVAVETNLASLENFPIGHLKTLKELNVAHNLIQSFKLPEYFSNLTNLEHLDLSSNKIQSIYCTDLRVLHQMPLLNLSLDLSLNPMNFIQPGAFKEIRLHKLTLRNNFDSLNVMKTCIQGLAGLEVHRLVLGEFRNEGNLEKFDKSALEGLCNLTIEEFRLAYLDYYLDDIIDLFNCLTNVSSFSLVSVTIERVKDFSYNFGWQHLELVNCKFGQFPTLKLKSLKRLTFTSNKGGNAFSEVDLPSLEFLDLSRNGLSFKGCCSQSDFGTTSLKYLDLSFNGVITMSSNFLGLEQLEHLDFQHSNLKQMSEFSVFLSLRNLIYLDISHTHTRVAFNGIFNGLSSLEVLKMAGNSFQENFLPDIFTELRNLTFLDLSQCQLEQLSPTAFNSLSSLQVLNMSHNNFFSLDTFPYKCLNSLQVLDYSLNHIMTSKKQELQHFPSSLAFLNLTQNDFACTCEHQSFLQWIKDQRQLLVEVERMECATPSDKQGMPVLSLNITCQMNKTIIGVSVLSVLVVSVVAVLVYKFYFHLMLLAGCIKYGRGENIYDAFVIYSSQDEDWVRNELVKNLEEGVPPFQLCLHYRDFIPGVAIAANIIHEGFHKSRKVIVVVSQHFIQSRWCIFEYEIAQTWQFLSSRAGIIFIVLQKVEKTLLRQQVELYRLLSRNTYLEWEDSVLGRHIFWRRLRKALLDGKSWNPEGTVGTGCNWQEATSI

In the case of `CC(=O)NC1[C@H](Oc2ccc(C(=O)N[C@@H]3OC(CO)[C@@H](O)[C@H](O)C3NC(C)=O)cc2)OC(CO)[C@@H](O)[C@@H]1O` (stereo partly shown) [Compound 3], the “inflammatory cytokines in neonatal mouse pups with BPD” value [1] is reported as “decrease inflammatory cytokines” and the “binding to TLR4” value (TLR4) is reported as “bind TLR4”.

With `CC(=O)N[C@@H]1C(Oc2ccc3nonc3c2)OC(CO)C(O)C1O` (stereo partly shown) [AVR-84] the Cmax [2] was 4.56 µM, the Tmax [2] was 0.5 ± 0.0 h and the “half-life (T v2)” value [2] was 1.66 ± 1.0 h. The plasma concentration profile [2] was “linear decline in drug concentration”.

In the case of `CCOC(=O)C1=CCCC[C@H]1S(=O)(=O)Nc1ccc(F)cc1Cl` [TAK 242, reference compound], the “total inflammatory cells in BALF” value [3] is reported as “did not affect” and the IL-12p40 response [4] is reported as “decrease the LPS induced increase in IL-12p40 level”.

For `CC(=O)N[C@@H]1C(Oc2ccc(B3OC(C)(C)C(C)(C)O3)cc2)OC(CO)C(O)C1O` (stereo partly shown) [Compound 32], the “inflammatory cytokines in neonatal mouse pups with BPD” value [1] was “decrease inflammatory cytokines” and the “binding to TLR4” value (TLR4) was “bind TLR4”.
